Assay [1] deals with Cystic fibrosis transmembrane conductance regulator (Homo sapiens), P13569 [F508del]. Briefly: Stabilization of F508del-CFTR in human CFBE41o- cells assessed as OUTB1 occupancy by Proteomic analysis relative to control. The class given is cell-based.
Assay [2] addresses T1, Golgi-associated PDZ and coiled-coil motif-containing protein (Homo sapiens, UniProt Q9HD26). The experiment in a line: Binding affinity to CAL PDZ domain (unknown origin) assessed as dissociation constant in presence of tris(carboxylethyl)phosphine by fluorescence anisotropy analysis. In general terms: Fluorescence polarisation rises when a labelled molecule tumbles more slowly, as on binding a larger partner.

The test system of assay [3] is Cystic fibrosis transmembrane conductance regulator (Homo sapiens), P13569 [F508del]. The experiment in a line: Modulation of F508del-CFTR mutant transfected in human HEK293 cells assessed as fold increase in level of ER glycosylated form of F508del-CFTR at 30 uM treated for 24 hrs by immunoblot assay. The format is cell-based. The settings on record: filed as modulator. Background: In western blotting, separated proteins are transferred to a membrane and probed.

Assay [4] is described as follows: Rescue of F508del-CFTR residual channel activity in hamster BHK cells assessed as fold increase in forskolin/genistein-induced iodide efflux measured every minute for 10 mins.
The nature of assay [5]: Inhibition of Hsp40-stimulated yeast Hsp70 ATPase activity assessed as inhibition constant by single-turnover assay. Set-up: species or system Saccharomyces cerevisiae.
Another assay is filed under the species Homo sapiens. Briefly: Inhibition of Hsp70 ATPase activity (unknown origin) at 200 uM incubated for 3 hrs in presence of ATP by malachite green assay relative to control.
The target in assay [6] is T2, Protein mono-ADP-ribosyltransferase PARP3 (Homo sapiens, UniProt Q9Y6F1).
T2 sequence (Q9Y6F1 whole entry): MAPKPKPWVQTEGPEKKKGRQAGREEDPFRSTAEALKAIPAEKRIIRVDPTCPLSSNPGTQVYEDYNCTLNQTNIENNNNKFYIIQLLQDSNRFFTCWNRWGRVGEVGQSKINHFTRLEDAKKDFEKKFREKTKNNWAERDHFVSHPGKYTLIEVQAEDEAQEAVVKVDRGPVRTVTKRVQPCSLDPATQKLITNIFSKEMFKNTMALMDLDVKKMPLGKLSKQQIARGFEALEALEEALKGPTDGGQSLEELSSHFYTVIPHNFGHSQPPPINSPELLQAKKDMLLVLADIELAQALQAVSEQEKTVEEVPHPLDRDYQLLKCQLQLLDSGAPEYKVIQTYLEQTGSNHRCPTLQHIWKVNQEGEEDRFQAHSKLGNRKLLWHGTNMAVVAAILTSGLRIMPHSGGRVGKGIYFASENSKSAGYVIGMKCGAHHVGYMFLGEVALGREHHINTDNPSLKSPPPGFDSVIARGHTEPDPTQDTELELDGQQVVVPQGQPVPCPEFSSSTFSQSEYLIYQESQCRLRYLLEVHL
Briefly: Inhibition of recombinant human PARP3 expressed in baculovirus expression system using anchored-histone proteins as substrate incubated for 1 hr by chemiluminescence assay.

The target in assay [7] is T3, Protein mono-ADP-ribosyltransferase PARP16 (Homo sapiens, UniProt Q8N5Y8).
T3 sequence (Q8N5Y8 whole entry): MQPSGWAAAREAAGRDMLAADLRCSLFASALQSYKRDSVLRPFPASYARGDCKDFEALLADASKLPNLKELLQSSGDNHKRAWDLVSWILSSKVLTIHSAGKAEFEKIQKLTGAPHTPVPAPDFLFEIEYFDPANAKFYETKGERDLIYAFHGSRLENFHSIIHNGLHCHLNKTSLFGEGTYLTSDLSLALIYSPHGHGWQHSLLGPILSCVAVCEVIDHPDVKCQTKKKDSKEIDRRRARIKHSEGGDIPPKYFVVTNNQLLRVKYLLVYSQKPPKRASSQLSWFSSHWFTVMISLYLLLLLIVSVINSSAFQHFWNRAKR
The experiment in a line: Inhibition of PARP16 (unknown origin) using 6xHis-tagged IRE-1 as substrate incubated for 1 hr by chemiluminescence assay.

In assay [8] the target is T1, Golgi-associated PDZ and coiled-coil motif-containing protein. The experiment in a line: Inhibition of CAL PDZ domain (unknown origin) assessed as inhibition constant by fluorescence polarization competition assay.
In assay [9] the test system is Cystic fibrosis transmembrane conductance regulator (Homo sapiens), P13569 [F508del]. Briefly: Modulation of F508del-CFTR mutant in HBE cells assessed as fold increase in CFTR mRNA levels by […]. The settings on record: filed as modulator. The class given is cell-based.
In a further assay the test system is Mus musculus. Briefly: In vivo rescue of F508del-CFTR activity in cystic fibrosis mouse model assessed as measuring salivary secretion at 5 mg/kg/day, ip qd for 2 days relative to control. The class given is functional. The settings on record: time 2 day.
A short description of assay [10]: Ex vivo inhibition of PARP-1 in ileum of cystic fibrosis mouse model assessed as rescue of F508del-CFTR activity at 1 nM treated for 4 hrs in presence of forskolin/genistein relative to control. The format is functional. Set-up: scale not given: the % may be the effect or the level left.

Structures are written as SMILES. Where a SMILES comes first, the peptide text is derived from it. Bridges are numbered along the chain shown (N, C = ends).

Cystic fibrosis transmembrane conductance regulator (Homo sapiens), P13569 [F508del], sequence (P13569 as listed by the source): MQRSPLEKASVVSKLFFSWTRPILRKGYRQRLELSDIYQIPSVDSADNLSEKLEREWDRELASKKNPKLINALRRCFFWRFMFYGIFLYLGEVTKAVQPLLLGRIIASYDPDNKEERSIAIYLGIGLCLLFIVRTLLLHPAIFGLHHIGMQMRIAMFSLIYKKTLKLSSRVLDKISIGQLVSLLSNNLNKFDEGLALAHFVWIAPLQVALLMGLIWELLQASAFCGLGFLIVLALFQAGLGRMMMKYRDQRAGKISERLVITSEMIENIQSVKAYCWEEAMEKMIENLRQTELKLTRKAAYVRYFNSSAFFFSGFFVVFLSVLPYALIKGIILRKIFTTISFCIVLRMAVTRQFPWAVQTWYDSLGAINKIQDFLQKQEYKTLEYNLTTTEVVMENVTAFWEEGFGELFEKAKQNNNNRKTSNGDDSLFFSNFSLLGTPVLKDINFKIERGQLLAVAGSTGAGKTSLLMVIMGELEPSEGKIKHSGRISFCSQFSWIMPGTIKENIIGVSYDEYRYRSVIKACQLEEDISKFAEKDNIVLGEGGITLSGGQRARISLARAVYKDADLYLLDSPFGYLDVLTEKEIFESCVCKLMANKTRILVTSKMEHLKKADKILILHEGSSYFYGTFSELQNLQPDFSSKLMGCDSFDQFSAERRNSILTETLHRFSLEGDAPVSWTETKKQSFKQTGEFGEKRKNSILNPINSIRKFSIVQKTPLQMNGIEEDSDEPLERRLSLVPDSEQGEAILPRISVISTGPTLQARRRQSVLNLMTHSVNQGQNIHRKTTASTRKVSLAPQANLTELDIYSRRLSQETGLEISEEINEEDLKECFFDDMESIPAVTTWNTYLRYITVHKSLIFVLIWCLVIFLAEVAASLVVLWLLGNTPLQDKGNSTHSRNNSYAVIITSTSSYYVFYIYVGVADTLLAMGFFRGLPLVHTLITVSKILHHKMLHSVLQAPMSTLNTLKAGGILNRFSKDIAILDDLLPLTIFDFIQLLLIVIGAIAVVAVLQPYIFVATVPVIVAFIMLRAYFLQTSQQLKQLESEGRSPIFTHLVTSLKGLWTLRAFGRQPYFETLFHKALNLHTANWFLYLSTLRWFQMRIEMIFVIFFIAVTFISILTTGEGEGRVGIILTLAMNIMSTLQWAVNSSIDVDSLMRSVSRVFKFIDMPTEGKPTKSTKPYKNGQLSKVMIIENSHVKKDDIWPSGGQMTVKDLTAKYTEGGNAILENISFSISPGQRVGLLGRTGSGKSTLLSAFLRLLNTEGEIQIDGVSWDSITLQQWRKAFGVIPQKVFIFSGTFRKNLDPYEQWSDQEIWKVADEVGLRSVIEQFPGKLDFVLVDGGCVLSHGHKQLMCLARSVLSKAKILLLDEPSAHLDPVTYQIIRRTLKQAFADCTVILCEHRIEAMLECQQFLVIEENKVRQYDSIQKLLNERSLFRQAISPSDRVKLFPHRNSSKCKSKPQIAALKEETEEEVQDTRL

Regarding `C=CC(=O)N1CCN(c2ccc(CCC(=O)NCCCCCNC(=O)c3cccc(-c4nc(NC(=O)C5(c6ccc7c(c6)OC(F)(F)O7)CC5)ccc4C)c3)o2)C(=O)C1`, the Activity in assay [1] worked out at 60%.

In the case of `CC(=O)N[C@H]1CSSC[C@@H](C(=O)N[C@H](C(=O)N[C@@H](CCCNC(=N)N)C(=O)N[C@H](C(=O)O)C(C)C)[C@@H](C)O)NC(=O)[C@H](CCC(N)=O)NC(=O)[C@H](Cc2c[nH]c3ccccc23)NC(=O)[C@H](Cc2ccccc2)NC(=O)[C@H](CCCNC(=N)N)NC(=O)[C@H](CCCNC(=N)N)NC(=O)[C@H](CCCNC(=N)N)NC(=O)[C@H](CCCNC(=N)N)NC1=O` (Ac-CRRRRFWQCTRV-OH; disulfide 1-9), the dissociation constant Kd (as a rule, the constant that tells how readily two partners part at equilibrium) in assay [2] turned out to be 0.49 µM.

`CC1=C(C(=O)OCc2ccccc2)C(c2ccc(Cl)cc2Cl)NC(=O)N1CCCC(=O)O` (stereo not given): the fold change (FC) in assay [3] was 2.1.

In the case of `CCN(CC)c1ccc(N/N=C2\C(=O)C=Cc3ccccc32)cc1`, in assay [4], the “fold change (FC)” value is on record as 2.5.

For the compound `N#CCc1nnc(-c2ccccn2)[nH]1`, the “fold change (FC)” value in assay [4] turned out to be 2.5.

Take `CCCCCCCCCCCCC/C=C/[C@@H](O)[C@H](COC1O[C@H](CO)[C@H](O)[C@H](OS(=O)(=O)O)[C@H]1O)NC(=O)CC12CC3CC(CC(C3)C1)C2` (stereo not given in full): the Ki (commonly the dissociation constant of the complex between target and ligand, obtained from inhibition or displacement) in assay [5] was 10 µM.

As to `COc1ccc(-c2nc(-c3cc(C(F)(F)F)cc(C(F)(F)F)c3)n(Cc3ccc(C(N)=O)cc3)c2-c2ccc(OC)cc2)cc1`, the inhibition (usually the percentage by which the read-out fell short of the control) in the assay filed under Homo sapiens was 55%.

`O=C1NC[C@@H](c2ccccc2)[C@@H](O)c2ccccc21`: the IC50 – broadly, the concentration that gives 50% inhibition – in assay [6] was determined as 3.1 µM; in assay [7], 296 µM.

On to `CC(=O)N[C@@H](Cc1c[nH]c2ccccc12)C(=O)N[C@@H](CCC(N)=O)C(=O)N[C@H](C(=O)N[C@H](C(=O)N[C@@H](CCCNC(=N)N)C(=O)N[C@H](C(=O)O)C(C)C)[C@@H](C)O)C(C)C` (Ac-WQVTRV-OH), for which, in [8], the Ki amounted to 2.3 µM.

As to `O=C(NCCCn1nncc1CO)c1cc(-c2ccccc2)on1`, in assay [9], the fold change (FC) was 1.5.

Regarding `C[C@]1(c2nc3c(C(N)=O)cccc3[nH]2)CCCN1` [VELIPARIB], the results for the Activity (in the assay on Mus musculus; in [10]) were 7.8% and 7%, respectively.

`O=C1NC[C@@H](c2ccccn2)[C@@H](O)c2cc(Cl)c(Cl)cc21`: the IC50 in assay [6] was determined as 74.1 µM; in assay [7], 0.362 µM.

These data come from ChEMBL document CHEMBL5131510, “Proteostasis Regulators in Cystic Fibrosis: Current Development and Future Perspectives” (J Med Chem, 2022).
